This note sets out measurements from ChEMBL document CHEMBL1148863, “Discovering new inhibitors of bacterial glucosamine-6P synthase (GlmS) by docking simulations” (Bioorg Med Chem Lett, 2007).

A word on the inhibition: it is how much of the control response was suppressed. High values mean a strong effect, low ones a weak effect. One may read the IC50 as the concentration that gives 50% inhibition. Read a high IC50 as weaker potency in that assay.

Assay [1] can be described thus: Inhibition of bacterial glucosamine-6-phosphate synthase at 100 uM by colorimetric morgan-elson assay.
Assay [2] is described as follows: Inhibition of bacterial glucosamine-6-phosphate synthase by colorimetric morgan-elson assay.

As to `O=C(O)Cc1csc(NC(=O)CSc2ccccn2)n1`, the inhibition in assay [1] turned out to be 0%.

On to `COc1cc2ccnc3c2c(c1OC)NC=C3` [AAPTAMINE], for which the IC50 in assay [2] amounted to 120 µM.

On to `N[C@@H](CO)[C@@H](O)[C@H](O)[C@H](O)COP(=O)(O)O`, for which 56 µM corresponded to half-maximal inhibition in assay [2] (IC50). Besides, the inhibition in assay [1] turned out to be 85%.

Compound `COc1ccccc1C1Oc2ccccc2C2=C1C(c1ccccc1OC)n1nc(C)nc1N2` (stereo not drawn) displayed an IC50 in assay [2] of 70 µM. Besides, in assay [1], the inhibition is 70%.

With `COc1ccc(-c2sc(C(=O)O)cc2CC(=O)O)cc1`, in assay [1], the inhibition worked out at 0%.

Turning to `CCOC(=O)c1sc(N2C(=O)C(O)=C(C(=O)c3ccc(F)cc3)C2c2ccc(OC)cc2)nc1C` (stereo not drawn), the IC50 in assay [2] came out at 70 µM. Besides, in assay [1], the inhibition worked out at 70%.

`O=C(C1=C(O)C(=O)N(Cc2cccnc2)C1c1cccc(Oc2ccccc2)c1)c1ccco1` (stereo not drawn) had an inhibition in assay [1] of 20%.

For `COC(=O)c1sc(N2C(=O)C(O)=C(C(=O)c3ccc(Cl)cc3)C2c2ccccc2F)nc1C` (stereo not drawn), in assay [1], the inhibition was determined as 0%.

The compound `O=C(O)C[C@@H](NS(=O)(=O)c1ccccc1)C(=O)O` had an inhibition in assay [1] of 0%.

Turning to `CCOC(=O)c1sc(N2C(=O)C(O)=C(C(=O)c3ccc(F)cc3)C2c2cccc(Br)c2)nc1C` (stereo not drawn), the IC50 in assay [2] was found to be 70 µM. The inhibition in assay [1] came to 70%.

In the case of `Nc1nc[nH]n1` [AMITROLE], the concentration for half-maximal inhibition (IC50) in assay [2] was determined as 100 µM.

`COC(=O)c1sc(N2C(=O)C(O)=C(C(=O)c3ccccc3)C2c2ccc(C)cc2)nc1C` (stereo not drawn) had an inhibition in assay [1] of 0%.

With `O=S(=O)(NC(NS(=O)(=O)c1ccccc1)c1ccc(Br)cc1)c1ccccc1`, in assay [1], the inhibition stood at 0%.

Turning to `O=C(O)CC(Sc1ccc(C(=O)O)cc1)C(=O)O` (stereo not drawn), the inhibition in assay [1] was 0%.
